According to ChEMBL document CHEMBL3507680, “University of Dundee, Gates Library screen for HepG2 cell viability”:

Experiment: Human HepG2 cell viability assay in 384 well format
Assay type: toxicity, cell-based
Set-up: dose 125 nL, time 70.5 hour; concentration not given beside the values
Settings: HepG2 cells, read-out: Inhibition

Structure (SMILES) | cytotoxicity at 70.5 h
Cc1nc(C)n(CC2CCCN2CCCc2ccccc2)n1 (stereo not given) | -6.68%
CC(C)n1cc(CN2CCCN(C(=O)c3nccnc3N)CC2)cn1 | 7.08%
Cn1ccc(NC(=O)Cc2cccc(F)c2)n1 | 14.1%
NC(=O)c1ccc(CN2CCCC(O)C2)cc1 (stereo not given) | -3.47%
NC(=O)c1ccc(CN2CCCC(N3CCCC3)C2)cc1 (stereo not given) | -7.14%
Cc1nn(CC(=O)N2CCCC2Cn2cccn2)c(C)c1Cl (stereo not given) | 9.12%
Cc1c(NC(=O)NCC(C)N2CCOCC2)cccc1OC(F)F (stereo not given) | -0.748%
O=C(CC1CN(Cc2ccccc2)CCO1)NC1CCCC1 (stereo not given) | 11.6%
Cc1cc(C)n(C2CCCN(C(=O)c3cccc4[nH]ncc34)C2)n1 (stereo not given) | -4.99%
Cc1nc(C)n(C2CCCN(C(=O)CCc3ccncc3)C2)n1 (stereo not given) | -0.318%
Cc1nc(C)n(C2CCCN(C(=O)CCCn3ccnc3)C2)n1 (stereo not given) | 4.28%
O=C(NCCOc1ncc(Cl)cc1Cl)c1ccncc1F | 0.0766%
CC(Oc1ccccc1C(F)(F)F)C(=O)NCCC(=O)N(C)C (stereo not given) | 0.999%
COc1c(C2CCCN2C(=O)c2ccc(Cl)o2)c(C)nn1C (stereo not given) | -5.88%
CNc1cc(N2CCCC2CNCc2ccc(Cl)o2)ncn1 (stereo not given) | 8.16%
CCOC1CCC2(CCN(C(=O)c3csnn3)CC2)c2ccccc21 (stereo not given) | 36.5%
COc1ncccc1CN1C[C@@H]2CN(c3ncccn3)C[C@@H]2C1 | 18.1%
CN1CC[C@]2(CN(CC3CC3)C[C@H]2c2ccccc2)C1=O | 23.4%
COc1cc(N2CCC3(CC2)CN(C)C(=O)CO3)ncn1 | 16.1%
CC(=O)N1CCC(c2nc3ccc(C)cn3n2)CC1 | -0.807%
O=C(c1ccc[nH]1)N1CCc2nnc(Cn3cccc3)n2CC1 | -7.68%
O=C(c1ccc[nH]1)N1CCc2nnc(Cn3cccn3)n2CC1 | -2.61%
COc1cc(N2CCC3(CC2)CNC(=O)CO3)ncn1 | -8.43%
COC[C@@H]1CCC[C@]12CN(S(=O)(=O)c1cn(C)cn1)CCO2 | -6.65%
O=C(Nc1ccccc1)N1C[C@H]2C[C@H](C(=O)N3CCOCC3)[C@@H](C1)O2 | -6.84%
CCOC[C@@H]1CCC[C@]12CN(S(=O)(=O)c1cn(C)cn1)CCO2 | -5.13%
CS(=O)(=O)N1CCC(c2nc3ccc(-c4cccc(F)c4)cn3n2)CC1 | -5.73%

Structure (SMILES) | cytotoxicity at 70.5 h
CN(C)C(=O)N1CC(C(=O)NCC2CC2)C2(CCOCC2)C1 (stereo not given) | 3.79%
CO[C@@H]1CO[C@@]2(CCCN(S(=O)(=O)c3ccccc3)C2)C1 | -14.8%
Cc1cccc(C(=O)N2Cc3ccccc3C3(CCN(C)CC3)C2)n1 | 7.65%
CN1CCCC2(CCN(C(=O)c3ccncc3)C2)C1 (stereo not given) | 7.77%
CC(C)n1ccc(-c2cc(C(=O)N3CCCC3)c3ccccn23)n1 | 39.5%
CN1CCN(Cc2cn3c(n2)CN(Cc2cccnc2)CC3)CC1 | 19.4%
CC(=O)NCC(=O)N1CCC2(CC1)CN(c1cccnc1)C(=O)CO2 | -13.6%
CC(=O)N1C[C@H](NC(=O)c2cscn2)[C@@H]2OCCC[C@@H]21 | -16.1%
COc1nn(C)c2c1CCCN(C(=O)c1cc[nH]n1)C2 | -13%
CCN1CCC2(COCc3cnc(-c4cccnc4)nc32)C1 (stereo not given) | -13.9%
CS(=O)(=O)NC[C@]12COC[C@H]1CN(C(=O)C1CCCCC1)C2 | -8.19%
CCN1CCCn2c(nc(CNC(=O)c3ccsc3)cc2=O)C1 | -15.8%
Cn1cccc1C(=O)N1CC[C@H]2C[C@@H](c3ccncn3)O[C@@H]2C1 | -9.87%
CC1=N[C@@]2(CC[C@@H]3CN(S(=O)(=O)N(C)C)C[C@@H]32)C(=O)N1CC(C)C | -7.17%
Cc1nc(COC[C@@H]2CC[C@H]3[C@H](CCN3S(C)(=O)=O)O2)cs1 | -11.7%
COCC(=O)N1CC[C@@H]2O[C@@H](COCc3csc(C)n3)CC[C@@H]21 | 4.53%
CC1=N[C@@]2(CC[C@@H]3CN(S(=O)(=O)CC(C)C)C[C@@H]32)C(=O)N1CC(C)C | -5.23%
Cc1ccc(CN2CCCC23CCN(S(=O)(=O)c2ccccc2)C3)o1 (stereo not given) | -7.71%
CS(=O)(=O)N[C@@H]1CCO[C@]2(CCN(C(=O)c3cnccn3)C2)C1 | -5.97%
CS(=O)(=O)NCc1nnc2n1CCN(CC1CC1)C2 | -6.05%
CN1CC(=O)N(c2cccc(F)c2)CC12CCNC2 (stereo not given) | 1.26%
Cc1nc(C)c2c(n1)CCN(C(=O)CC1CC1)CC2 | -6.2%
CC(=O)NCC(=O)N1Cc2nccn2CC(Cn2cccn2)C1 (stereo not given) | -4.71%
Cc1noc([C@H]2C[C@@H]3CCN(C(=O)N(C)C)C[C@H]3O2)n1 | -4.62%
CN1C(=O)C2(CCN(CCO)C2)c2ccccc21 (stereo not given) | -5.56%
Cc1cc(CN2C[C@@H]3COC[C@]3(CNC(=O)c3ccno3)C2)no1 | -4.13%
Cn1ccc(C(=O)NC2CCC23CCN(C(=O)N2CCCC2)CC3)c1 (stereo not given) | -1.08%

Structure (SMILES) | cytotoxicity at 70.5 h
CCS(=O)(=O)N1CCC2(CCC2NC(=O)c2ccn(C)c2)CC1 (stereo not given) | -7.91%
O=C(NCC1CC1)[C@H]1C[C@H]2OCC[C@H]2N(Cc2ccoc2)C1 | 22.9%
O=C(NCC1CC1)[C@H]1C[C@@H]2CN(S(=O)(=O)Cc3ccccc3)C[C@H]1O2 | 18.9%
O=C(c1cscn1)N1CCN2C[C@H](OCc3cccnc3)C[C@H]2C1 | 20%
CN(C)CCN1CC(C(=O)NCc2ccc(C#N)cc2)CC1=O (stereo not given) | -1.01%
CCN(C)Cc1nc(-c2ccccc2NS(C)(=O)=O)oc1C | -10.5%
O=C(NCc1cncc2c1CCN(C1CCOC1)C2)c1ccco1 (stereo not given) | -2.1%
Cc1cccc(N2CCOCC3(C2)CN(c2cnn(C)c2)C(=O)CO3)n1 (stereo not given) | 16.9%
Cc1cccc(N2CCOCC3(C2)CN(c2ccoc2)C(=O)CO3)n1 (stereo not given) | 6.55%
O=C([C@H]1CCCO1)N1CCCC2(COCCN(c3ccccc3)C2)C1 (stereo not given in full) | -10.4%
O=C1NCC[C@]12CN(CC1CCOCC1)C[C@H]2c1ccccc1 | -7.01%
CCN(CC)Cc1cc(=O)n2c(n1)CN(S(=O)(=O)C1CC1)CCC2 | -7.27%
c1coc(CN2CCO[C@H]3[C@H](OCC4CC4)CC[C@@H]32)c1 | -10.8%
COCC1c2c(cnn2C)CCN1C(=O)c1cc(C)on1 (stereo not given) | -0.669%
Cc1ccc(N2CC[C@@H]3[C@@H]2CCN3C(=O)Cc2ccccc2)nn1 | 5.36%
CCCC(=O)Nc1ccc2c(c1)C1(CCOCC1)CN2CCOC | 18.8%
COCC(=O)N1CCC2(CC1)CC(COC)N(Cc1ccccn1)C2 (stereo not given) | -4.33%
CN1CCOCC2(CCCN(C(=O)c3cnccn3)C2)C1 (stereo not given) | 0.574%
c1cnc(N2CCC3(COCc4cnc(-c5cccnc5)nc43)C2)nc1 (stereo not given) | 19.5%
COCC(=O)NC1CC2(CCN(Cc3ccco3)CC2)c2ccccc21 (stereo not given) | -12.8%
NC(=O)N1CC[C@H](O)[C@@H]1Cc1cccnc1 | -12.6%
O=C(NCCc1cccs1)[C@H]1CO[C@H]2CCNC[C@H]2C1 | -15%
COCCN1CC[C@@H]2OC[C@H](C(=O)NCc3cccs3)C[C@@H]2C1 | 10.1%
CCC1=N[C@@]2(CC[C@@H]3CN(CC4CC4)C[C@@H]32)C(=O)N1C | -14.1%
CS(=O)(=O)CC(=O)N1C[C@H]2CCC[C@@]2(COCc2ccccn2)C1 | -19.8%
Cc1nnc(N2CC[C@H]3C[C@@H](C(=O)NC4CCCC4)O[C@H]3C2)s1 | 27%
O=C(NCC1CC1)[C@H]1C[C@H]2OCC[C@H]2N(CCc2ccccc2)C1 | -1.31%

Structure (SMILES) | cytotoxicity at 70.5 h
CC(C)NC(=O)N1CCc2ncc(CN3CCOCC3)n2CC1 | -1.87%
Cn1ccc(C(=O)N2CCC[C@]3(C[C@@H](OCc4ccccn4)CO3)C2)n1 | -12.2%
Cc1cnnn1Cc1ncn2c1CN(Cc1cccs1)CCC2 | 4.51%
c1ccc(CN2CCc3ncnc(-c4ccsc4)c3CC2)nc1 | -12.4%
O=C1CC(c2cccnc2)C2(CCN(S(=O)(=O)C3CC3)CC2)N1 (stereo not given) | -3.38%
Cc1nc(CN2CCc3ncnc(C)c3CC2)cs1 | -6.23%
Cn1cc(-c2cnc(N3CCOCC3)nc2)cc1C(=O)NCCO | -6.33%
CC(C)N(C)Cc1cnc2n1CCN(C(=O)NC1CCCC1)C2 | -9.47%
COCCN1C(=O)C[C@H]2[C@H]1CCN2Cc1cccc(C#N)c1 | -19.1%
O=C(CC1CC1)NCc1cn2c(n1)CN(CC1CC1)CC2 | -19.5%
O=C1[C@@H]2CCN(Cc3ccoc3)C[C@@H]2OCCN1c1ccccc1 | -10.9%
CCN1C[C@@H]2[C@@H](OC)CCN(S(=O)(=O)c3ccccc3F)[C@@H]2C1 | -9.34%
CCC(=O)N1CC[C@H]2[C@H](C[C@@H](Cn3cccn3)N2c2nccs2)C1 | 8.28%
Cn1ccc(CN2CCCC23CCN(Cc2ccccc2F)CC3)n1 | -4.06%
Cc1ccc(N2CC[C@@H]3[C@@H]2CCN3Cc2ccsc2)nn1 | -0.146%
CC(C)N1CCC2(CCN(C(=O)c3cccnc3)CC2)C1 | -16.3%
O=C(NCc1ccccn1)[C@H]1COC[C@H]2CN(Cc3ccoc3)C[C@H]21 | -2.29%
O=C([C@H]1C[C@H]2OCC[C@H]2N(Cc2cccnc2)C1)N1CCCO1 | 0.465%
Cc1ncccc1NC(=O)[C@H]1C[C@@H]2CCN(Cc3nccs3)C[C@@H]2O1 | -2.41%
COc1ccc(CN2C[C@@H]3OCCN(c4ncccn4)[C@@H]3C2)cc1 | -7.28%
Cc1cccc(CN2C(=O)CC[C@@H]3[C@H]2CCN3Cc2ccc(C)s2)n1 | -18.1%
FC1(F)CCN(Cc2ccccn2)CC12CCN(c1cccnc1)C2 (stereo not given) | 21.6%
c1cc(CNCC2OCCc3cn(CC4CCOCC4)nc32)ccn1 (stereo not given) | 9.22%
Cn1nc(COc2cccnc2)c2c1CCN(c1cnccn1)C2 | -14.9%
